Experimental findings from US4774242A, “Tetrahydrobenz(c,d)indoles and pharmaceutical use” (Roussel Uclaf, priority 1986, dated 1988) are described below.

A short description of data set [1]: Study of the acute toxicity (LD0). The data set is classed as in vivo. As to conditions: oral, mice, maximal dose not causing any mortality over 8 days. The method, then: The lethal doses LD0 of the different compounds tested was evaluated after oral administration in mice and the maximal dose not causing any mortality over 8 days was called the LD0.
Data set [2] addresses T1, dopaminergic receptors (Rattus norvegicus, UniProt P61169).
T1 construct: Striated bodies removed from the brains of 6 male rats; from tissue; host or cells: rat striatum (striated bodies), membrane fraction
The data set is described as follows: Affinities for the dopaminergic receptors (displacement of spiroperidol 3H, rat striated bodies). Format: binding. Particulars: rat striatum, relative to haloperidol = 100, from concentrations inhibiting 50% of specific fixation. The method, then:
Striated bodies removed from the brains of 6 male rats weighing an average of 150 g were homogenized at one-twentieth (weight/volume) in 0.32M sucrose. After centrifuging the homogenized mixture at 1000 g for 10 minutes at 0° C., the supernatant was centrifuged at 30,000 g for 15 minutes at +4° C. The residue was taken up in 25 ml of Tris HCl 50 mM pH 7.7 buffer and centrifuged at 30,000 g for 15 minutes at +4° C. The new residue was taken up in 50 ml of Krebs Tris HCl pH 7.3 buffer and the suspension was pre-incubated for 10 minutes at 37° C. Then it was incubated for 29 minutes on a water-bath at +37° C. in the presence of spiroperidol ^3 H alone, with an excess of haloperidol, and with increasing concentrations of the test product. The incubated suspensions were filtered on Whatman GF/C and the filters were washed three times with 5 ml of Tris HCl 50 mM buffer. The radioactivity of the filters is measured by liquid scintillation. The non-specific fixation was determined in parallel by incubation of spiroperidol ^3 H in the presence of an excess of haloperidol. The affinity of the product tested for the dopaminergic receptors is given relative to haloperidol as reference product,
CD=concentration of cold haloperidol inhibiting 50% of the specific fixation of the spiroperidol ^3 H,
CX=concentration of the product under test inhibiting 50% of the specific fixation of the piroperidol ^3 H.
The relative affinity was determined by the relation: [formula]

The test system of data set [3] is enolase γγ. Briefly: Antianoxic activity: enolase test (kainic acid lesions). The data set is classed as in vivo. As to conditions: intraperitoneal, upwards of a dose of 1 mg/kg, 1 hour after kainic acid, mice. The method, then: Suffering cerebral cells release enolase γγ which is a specific indicator of neuronal lesions. In the test, the lesions were carried out in mice by subcutaneous injection of 35/mg/kg of kainic acid.

Data set [4] concerns arterial pressure. Briefly: Determination of hypotensive activity (carotid arterial pressure, anesthetized rats). The data set is classed as in vivo, male rats of WISTAR strain. As to conditions: 0.01 mg/kg intravenous, anesthetized male Wistar rats. The method, then: The hypotensive activity was studied in male rats of WISTAR strain weighing about 300 g and anesthetized with nembutal (50 mg/kg by intraperitoneal route). The test product was administered intravenously in the jugular vein. The arterial pressure in the carotid was measured before and after administration of the test product. The following table indicates the variations expressed in percentage of the arterial pressure after administration of the product under test relative to the initial control arterial pressure.

T1 sequence (P61169 whole entry): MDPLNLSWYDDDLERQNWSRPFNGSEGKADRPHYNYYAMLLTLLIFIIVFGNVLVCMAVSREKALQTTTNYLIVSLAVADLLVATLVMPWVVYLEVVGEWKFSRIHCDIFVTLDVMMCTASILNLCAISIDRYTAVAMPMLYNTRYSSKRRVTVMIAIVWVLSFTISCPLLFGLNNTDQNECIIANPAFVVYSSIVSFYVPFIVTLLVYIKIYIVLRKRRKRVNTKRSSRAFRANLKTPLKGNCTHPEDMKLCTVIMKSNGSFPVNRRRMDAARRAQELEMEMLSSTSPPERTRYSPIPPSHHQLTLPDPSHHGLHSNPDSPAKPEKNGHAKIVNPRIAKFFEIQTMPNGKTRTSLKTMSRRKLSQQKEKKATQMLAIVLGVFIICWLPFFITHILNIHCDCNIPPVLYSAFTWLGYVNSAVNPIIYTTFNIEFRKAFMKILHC

In data set [1], `c1cc2c3c(c[nH]c3c1)[C@H]1OCCN[C@@H]1C2` (relative stereo) [Example 2, (dl-trans) 2,6,6a,7,8,9,10a-hexahydro-6H-indol-[4,3-g,h]-1,4-benzoxazine] gave an LD0 of over 200 mg/kg. Further, the “Relative affinity (Haloperidol = 100)” value in data set [2] worked out at 0.09.
For `CCCN1CCO[C@@H]2c3c[nH]c4cccc(c34)C[C@H]21` (relative stereo) [Example 3, (dl-trans) 2,6a,7,8,9,10a-hexahydro-7-propyl-6H-indol-[4,3-g,h]-1,4-benzoxazine], the LD0 in data set [1] stood at 100 mg/kg. For the same molecule, in data set [2], the “Relative affinity (Haloperidol = 100)” value was 13. Moreover, in data set [3], the “seral concentration of enolase” value is recorded as “reduced the seral concentration of enolase”. Also, in data set [4], the “% Variations of the arterial pressure 5 minutes after administration” value is under -40%.
Consider `CN1CCO[C@@H]2c3c[nH]c4cccc(c34)C[C@H]21` (relative stereo) [Example 4, (d,l trans) 2,6a,7,8,9,10a-hexahydro-7-methyl 6H-indol-[4,3-g,h]-1,4-benzoxazine], for which the “Relative affinity (Haloperidol = 100)” value in data set [2] is on record as 0.4.
